Key:
[1] = biological target: T1, human recombinant casein kinase 1ε (Homo sapiens, UniProt P49674); assay: Casein kinase 1ε inhibition assay (Z'-LYTE Ser/Thr 11 Peptide); type: biochemical; details: 0.3 μg/ml compound, 0.5 μg/ml enzyme, 1.0 μM peptide, 20 μM ATP; 15 min pre-reaction, 2 hours; read-out: Casein kinase 1ε inhibitory rate
T1 construct: purchased INVITROGEN PV3500
Description: The activity of the present compound to inhibit casein kinase 1δ and casein kinase 1ε was measured using human recombinant casein kinase 1δ (INVITROGEN; Cat No. PV3665) or casein kinase 1ε (INVITROGEN; Cat No. PV3500) as an enzyme source, and using Z′-LYTE Ser/Thr 11 Peptide (INVITROGEN; Cat No. PV3671) as a phosphorylation substrate. The compositions (final concentrations) applied during the inhibitory activity measurement assays are as follows. […]
(§1) The present compound had previously been reacted with the enzyme at room temperature for 15 minutes. Two hours after completion of the reaction, the remaining phosphorylation activity was measured using Z′-LYTE Kinase Assay Kit-Ser/Thr 11 Peptide (INVITROGEN; Cat No. PV3670).
(§2) The inhibitory rate of the present compound was calculated with respect to the phosphorylation activity of each of casein kinase 1δ and casein kinase 1ε in a case in which no such compounds were added. Tables 1 to 4 show the inhibitory rate (%) of each compound.

[2] = biological target: T2, human recombinant casein kinase 1δ (Homo sapiens, UniProt P48730); assay: Casein kinase 1δ inhibition assay (Z'-LYTE Ser/Thr 11 Peptide); type: biochemical; details: 0.3 μg/ml compound, 3.0 μg/ml enzyme, 1.0 μM peptide, 20 μM ATP; 15 min pre-reaction, 2 hours; read-out: Casein kinase 1δ inhibitory rate
T2 construct: purchased INVITROGEN PV3665
T2 sequence (P48730 whole entry): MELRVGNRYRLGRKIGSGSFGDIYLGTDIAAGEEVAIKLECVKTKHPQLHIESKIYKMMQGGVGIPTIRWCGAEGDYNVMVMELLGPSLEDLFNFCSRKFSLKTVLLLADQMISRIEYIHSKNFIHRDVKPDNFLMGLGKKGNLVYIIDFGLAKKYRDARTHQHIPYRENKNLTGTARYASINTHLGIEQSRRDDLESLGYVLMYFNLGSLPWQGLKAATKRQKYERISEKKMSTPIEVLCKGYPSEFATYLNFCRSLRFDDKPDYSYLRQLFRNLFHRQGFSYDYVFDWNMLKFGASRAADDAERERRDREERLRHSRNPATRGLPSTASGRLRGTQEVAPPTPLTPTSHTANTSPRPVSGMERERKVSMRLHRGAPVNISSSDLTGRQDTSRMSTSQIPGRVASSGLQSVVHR
Description: The activity of the present compound to inhibit casein kinase 1δ and casein kinase 1ε was measured using human recombinant casein kinase 1δ (INVITROGEN; Cat No. PV3665) or casein kinase 1ε (INVITROGEN; Cat No. PV3500) as an enzyme source, and using Z′-LYTE Ser/Thr 11 Peptide (INVITROGEN; Cat No. PV3671) as a phosphorylation substrate. The compositions (final concentrations) applied during the inhibitory activity measurement assays are as follows.
Assay of Casein Kinase 1δ
3.0 μg/ml casein kinase 1δ, 0.3 μg/ml the present compound, 1.0 μM peptide, 20 μM ATP, 50 mM HEPES (pH 7.4), 10 mM MgCl2, 0.01% Brij-35, and 0.5% DMSO
as §1, §2

[3] = tested on: human pancreatic cancer cell line; details: human pancreatic cancer cell line in vitro; cited from earlier work
[4] = tested on: N2A cells (N2A-APP695 cells); details: N2A-APP695 cells excessively expressing constitutively active casein kinase 1ε; cited from earlier work
[5] = tested on: human pancreatic cancer cell line transplanted into the subcutis of a mouse; details: cited from earlier work
rats = details: subcutaneous administration; cited from earlier work

T1 sequence (P49674 whole entry): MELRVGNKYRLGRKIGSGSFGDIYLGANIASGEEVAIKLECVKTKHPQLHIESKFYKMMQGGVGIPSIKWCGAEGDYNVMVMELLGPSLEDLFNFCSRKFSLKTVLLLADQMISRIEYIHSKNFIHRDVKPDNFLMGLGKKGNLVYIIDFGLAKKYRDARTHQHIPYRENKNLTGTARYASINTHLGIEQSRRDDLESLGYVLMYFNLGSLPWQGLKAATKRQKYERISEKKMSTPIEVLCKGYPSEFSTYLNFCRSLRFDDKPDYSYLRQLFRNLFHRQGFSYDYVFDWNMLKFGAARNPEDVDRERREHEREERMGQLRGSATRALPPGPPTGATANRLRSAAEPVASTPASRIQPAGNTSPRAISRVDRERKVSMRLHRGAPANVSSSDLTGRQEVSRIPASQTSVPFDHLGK

## COc1ccc(/C=C2\N=C(c3cccs3)OC2=O)cc1 [4-((4-methoxyphenyl)methylene)-2-(2-thienyl)-5(4H)-oxazolone]
[1]
  inhibition at 0.3 µg/mL: 98.6%
[2]
  inhibition at 0.3 µg/mL: 96.1%

## COc1cc(OC)c(C=C2C(O)=Nc3ccccc32)c(OC)c1 [IC261]
[3]
  cell growth: suppression of the cell growth was observed
[4]
  amount of Aβ40: decreased
  amount of Aβ42: decreased
[5]
  growth of tumor cells: significant effect of suppressing the growth of tumor cells

## COc1ccc(C2=N/C(=C\c3cccnc3)C(=O)O2)cc1Br [2-(3-Bromo-4-methoxyphenyl)-4-(3-pyridinylmethylene)-5-(4H)-oxazolone]
[1]
  inhibition at 0.3 µg/mL: 99.4%
[2]
  inhibition at 0.3 µg/mL: 94.2%

## Cn1cnc(/C=C2\N=C(c3cccs3)OC2=O)c1 [Example 10, 4-((1-Methyl-1H-imidazol-yl)methylene)-2-(2-thienyl)-5(4H)-oxazolone]
[1]
  inhibition at 0.3 µg/mL: 18.1%
[2]
  inhibition at 0.3 µg/mL: 37%

## O=C1OC(c2cccs2)=N/C1=C\c1ccc([N+](=O)[O-])c(Br)c1 [4-((3-Bromo-4-nitrophenyl)methylene)-2-(2-thienyl)-5(4H)-oxazolone]
[1]
  inhibition at 0.3 µg/mL: 94.4%
[2]
  inhibition at 0.3 µg/mL: 85.9%

## O=C1OC(c2cccs2)=N/C1=C\c1cc2c(cc1Cl)OCO2 [4-((6-Chloro-1,3-benzodioxol-5-yl)methylene)-2-(2-thienyl)-5(4R)-oxazolone]
[1]
  inhibition at 0.3 µg/mL: 97%
[2]
  inhibition at 0.3 µg/mL: 74.3%

## O=C1OC(c2cccs2)=N/C1=C\c1csnn1 [Example 14, 4-((1,2,3-Thiadiazol-4-yl)methylene)-2-(2-thienyl)-5(4H)-oxazolone]
[1]
  inhibition at 0.3 µg/mL: 19.2%
[2]
  inhibition at 0.3 µg/mL: 32.2%

## COc1ccc(/C=C2\N=C(c3cccs3)OC2=O)cn1 [Example 5, 4-((6-Methoxy-3-pyridinyl)methylene)-2-(2-thienyl)-5(4H)-oxazolone]
[1]
  inhibition at 0.3 µg/mL: 95.6%
[2]
  inhibition at 0.3 µg/mL: 86.3%

## O=C1OC(c2cccs2)=N/C1=C\c1cc(Cl)c2c(c1)OCCO2 [4-((8-Chloro-2,3-dihydro-1,4-benzodioxin-6-yl)methylene)-2-(2-thienyl)-5(4H)-oxazolone]
[1]
  inhibition at 0.3 µg/mL: 85.8%
[2]
  inhibition at 0.3 µg/mL: 76.7%

## COc1ccc(/C=C2\N=C(c3cccs3)OC2=O)cc1[N+](=O)[O-] [4-((4-Methoxy-3-nitrophenyl)methylene)-2-(2-thienyl)-5(4H)-oxazolone]
[1]
  inhibition at 0.3 µg/mL: 94.8%
[2]
  inhibition at 0.3 µg/mL: 91%

## Nc1ccn([C@@H]2O[C@H](CO)[C@@H](O)C2(F)F)c(=O)n1 [gemcitabine]
[5]
  growth of tumor cells: significant effect of suppressing the growth of tumor cells

## O=C1OC(c2cccs2)=N/C1=C\c1cocn1 [Example 13, 4-((4-Oxazoyl)methylene)-2-(2-thienyl)-5(4H)-oxazolone]
[1]
  inhibition at 0.3 µg/mL: 32%
[2]
  inhibition at 0.3 µg/mL: 67.9%

## COCc1ccc(/C=C2\N=C(c3cccs3)OC2=O)o1 [Example 12, 4-((5-Methoxymethyl-2-furanyl)methylene)-2-(2-thienyl)-5(4H)-oxazolone]
[1]
  inhibition at 0.3 µg/mL: 9%
[2]
  inhibition at 0.3 µg/mL: 29%

## COc1ccc(/C=C2\N=C(c3cccs3)OC2=O)c(Cl)n1 [Example 19, 4-((2-Chloro-6-methoxy-3-pyridinyl)methylene)-2-(2-thienyl)-5(4H)-oxazolone]
[1]
  inhibition at 0.3 µg/mL: 52.5%
[2]
  inhibition at 0.3 µg/mL: 76.1%

## Cc1cc(C2=N/C(=C\c3cccnc3)C(=O)O2)ccc1Br [2-(4-Bromo-3-methylphenyl)-4-(3-pyridinylmethylene)-5(4H)-oxazolone]
[1]
  inhibition at 0.3 µg/mL: 97.8%
[2]
  inhibition at 0.3 µg/mL: 83.2%

## COC(=O)c1ccc(/C=C2\N=C(c3cccs3)OC2=O)cc1 [Methyl 4-((5-oxo-2-(2-thienyl)oxazol-4(5H)-ylidene)methyl) benzoate]
[1]
  inhibition at 0.3 µg/mL: 95.1%
[2]
  inhibition at 0.3 µg/mL: 86.8%

## COc1cncc(/C=C2\N=C(c3ccc(C)s3)OC2=O)c1 [Example 1, 4-((5-Methoxy-3-pyridinyl)methylene)-2-(5-methyl-2-thienyl)-5(4H)-oxazolone]
[1]
  inhibition at 0.3 µg/mL: 97.1%
[2]
  inhibition at 0.3 µg/mL: 82%

## O=C1OC(c2cccs2)=N/C1=C\c1ccc([N+](=O)[O-])c(Cl)c1 [4-((3-Chloro-4-nitrophenyl)methylene)-2-(2-thienyl)-5(4H)-oxazolone]
[1]
  inhibition at 0.3 µg/mL: 97.6%
[2]
  inhibition at 0.3 µg/mL: 87.6%

## O=C1OC(c2cccs2)=N/C1=C\c1cccnc1F [Example 4, 4-((2-Fluoro-3-pyridinyl)methylene)-2-(2-thienyl)-5(4H)-oxazolone]
[1]
  inhibition at 0.3 µg/mL: 39.2%
[2]
  inhibition at 0.3 µg/mL: 65.6%

## COc1cc(/C=C2\N=C(c3cccs3)OC2=O)ccn1 [Example 9, 4-((2-Methoxy-4-pyridinyl)methylene)-2-(2-thienyl)-5(4H)-oxazolone]
[1]
  inhibition at 0.3 µg/mL: 93.8%
[2]
  inhibition at 0.3 µg/mL: 60.5%

## Cn1cc(/C=C2\N=C(c3cccs3)OC2=O)cn1 [4-((1-Methyl-1H-pyrazol-4-yl)methylene)-2-(2-thienyl)-5(4H)-oxazolone]
[1]
  inhibition at 0.3 µg/mL: 48.8%
[2]
  inhibition at 0.3 µg/mL: 73.6%

## COc1ccc(/C=C2\N=C(c3cccs3)OC2=O)c(C)n1 [Example 18, 4-((6-Methoxy-2-methyl-3-pyridinyl)methylene)-2-(2-thienyl)-5(4H)-oxazolone]
[1]
  inhibition at 0.3 µg/mL: 32.8%
[2]
  inhibition at 0.3 µg/mL: 55.3%

## O=C1OC(c2cccs2)=N/C1=C\c1cncc(F)c1 [Example 3, 4-((5-Fluoro-3-pyridinyl)methylene)-2-(2-thienyl)-5(4H)-oxazolone]
[1]
  inhibition at 0.3 µg/mL: 92.1%
[2]
  inhibition at 0.3 µg/mL: 87.4%

## Nc1nccc(-c2c(-c3ccc(F)cc3)ncn2C2CCCCC2)n1 [PF-670462, 4-[3-cyclohexyl-5-(4-fluoro-phenyl)-3H-imidazol-4-yl]-pyrimidin-2-ylamine]
rats
  phase of circadian rhythm: significantly delayed

## COc1cncc(/C=C2\N=C(c3cccs3)OC2=O)c1 [Example 2, 4-((5-Methoxy-3-pyridinyl)methylene)-2-(2-thienyl)-5(4H)-oxazolone]
[1]
  inhibition at 0.3 µg/mL: 96.6%
[2]
  inhibition at 0.3 µg/mL: 91.1%

## O=C1OC(/C=C/c2ccccc2)=NC/1=C\c1cccnc1 [2-(2-phenylethenyl)-4-(3-pyridinylmethylene)-5(4H)-oxazolone]
[1]
  inhibition at 0.3 µg/mL: 83.4%
[2]
  inhibition at 0.3 µg/mL: 85%
